≈ marks a conversion by molar mass, not a printed value.
What was measured:
Format in all cases: cell-based
[1] = tested on: Candida albicans KF1; assay: Enhanced activity of azole antifungal agent, paper disc method; settings: 100 μg, 27° C., 24 hours
Protocol: (§1) Enhanced activity of azole antifungal agent is determined by the following method. Candida albicans KF1 and Saccharomyces cerevisiae KF26 (ATCC 9763) were used. Candida albicans KF1 was cultured in Waksman broth (glucose 2.0%, peptone 0.5%, meat extract 0.5%, and NaCl 0.5%, pH 7.0) and Saccharomyces cerevisiae KF26 was cultured in potato broth (glucose 1.0%, peptone 0.5% and potato extract 100 ml). Both strains were cultured at 27° C. for 40 hours. Subsequently, each strain was inoculated in GY agar medium (glucose 1.0%, yeast extract 0.5% and agar 0.8%, pH 6.0). […]. Miconazole (Sigma Chemicals, Inc.) was used as the azole antifungal agent. […] Activities were assessed using paper disc ([…]: 8 mm, ADVANTEC Inc.). After being cultured at 27° C. for 24 hours, the diameter of the inhibitory zone was measured for each organism.

[2] = tested on: Saccharomyces cerevisiae KF26 (ATCC 9763); assay: as above; settings: 100 μg, 27° C., 24 hours
Protocol: as §1

[3] = tested on: Bacillus subtilis KB27 (ATCC6633); assay: MIC, microbroth dilution method; settings: ATCC6633, 24 h
[4] = tested on: Staphylococcus aureus KB210 (ATCC6538P); assay: MIC, microbroth dilution method; settings: 24 h
[5] = tested on: Micrococcus luteus KB40 (ATCC9431); assay: MIC, microbroth dilution method; settings: ATCC9431, 24 h
[6] = tested on: Mycobacterium smegmatis KB42 (ATCC607); assay: MIC, microbroth dilution method; settings: Mycolicibacterium smegmatis, ATCC607, 24 h
[7] = tested on: Escherichia coli KB176 (IF012734); assay: MIC, microbroth dilution method; settings: 24 h
[8] = tested on: Pseudomonas aeruginosa KB105 (IF03080); assay: MIC, microbroth dilution method; settings: 24 h
[9] = tested on: Xanthomonas campestris pv. oryzae KB88; assay: microbe, parasite or virus in culture; settings: 24 h
[10] = tested on: Acholeplasma laidlawii KB174; assay: MIC, microbroth dilution method; settings: KB174, 24 h
[11] = tested on: Pyricularia oryzae KB180; assay: microbe, parasite or virus in culture; settings: KB180, 48 h
[12] = tested on: Aspergillus niger KB103 (ATCC6275); assay: MIC, microbroth dilution method; settings: ATCC6275, 48 h
[13] = tested on: Mucor racemosus KF223 (IF04581); assay: MIC, microbroth dilution method; settings: 24 h
[14] = tested on: Candida albicans KF1; assay: MIC, microbroth dilution method; settings: KF1, 24 h
[15] = tested on: Saccharomyces cerevisiae KF26 (ATCC9763); assay: MIC, microbroth dilution method; settings: ATCC9763, 24 h
[16] = miconazole 0.1 μg/ml added to GY agar
[17] = without addition of miconazole, GY agar

For `COC(=O)c1cc(OC)cc(OC)c1C(=O)c1coc(CC(C)OC(C)=O)cc1=O` (centres unmarked) [FKI-0076 substance], the inhibition ring [1, 16] was 15 mm, the inhibitory ring [1, 17] was “did not show an inhibitory ring” and the inhibition ring [2, 16] was 25 mm. For the same compound, the inhibitory ring [2, 17] was “did not show an inhibitory ring”, the MIC [3] was > 125 µg/mL and the MIC [4] was > 125 µg/mL. The MIC [5] was > 125 µg/mL, the MIC [6] was > 125 µg/mL and the MIC [7] was > 125 µg/mL. For the same compound, the MIC [8] was > 125 µg/mL, the MIC [9] was > 125 µg/mL and the MIC [10] was 125 µg/mL (≈ 299 µM). For the same compound, the MIC [11] was 125 µg/mL (≈ 299 µM), the MIC [12] was > 125 µg/mL and the MIC [13] was > 125 µg/mL. For the same compound, the MIC [14] was > 125 µg/mL and the MIC [15] was > 125 µg/mL.

— US6790968B1, “Substance FKI-0076 and process for producing the same” (The Kitasato Institute, priority 2002, dated 2004)
